Results from ChEMBL document CHEMBL4308841, “Synthesis, in vitro antiproliferative activity, and kinase inhibitory effects of pyrazole-containing diarylureas and diarylamides” (Eur J Med Chem, 2018).
pIC50: −log10 of the molar value.

The compounds below were run on UACC-257 (assay: Growth inhibition of human UACC257 cells assessed as cell growth at 100 uM incubated for 48 hrs by sulforhodamine B assay relative to control). Settings: UACC-257, 48 h, read-out: Activity.
Format: functional

Row | SMILES | growth at 100 µM [%]
1 | COc1cc(Cl)cc(-c2nn(-c3cccc(NC(=O)c4cccc(C(F)(F)F)c4)c3)cc2-c2ccncc2)c1 | 52

What follows are compounds tested on SR (assay: Growth inhibition of human SR cells assessed as cell growth at 1 uM incubated for 48 hrs by sulforhodamine B assay relative to control). Settings: read-out: Activity.
Format: functional

Row | SMILES | growth at 1 µM [%]
2 | COc1cc(Cl)cc(-c2nn(-c3cccc(NC(=O)c4cccc(C(F)(F)F)c4)c3)cc2-c2ccncc2)c1 | 58

These compounds were tested on OVCAR-4 (assay: Growth inhibition of human OVCAR4 cells assessed as cell growth at 0.01 uM incubated for 48 hrs by sulforhodamine B assay relative to control). Settings: OVCAR-4, 48 h, read-out: Activity.
Format: functional

Row | SMILES | growth at 0.01 µM [%]
3 | COc1cc(Cl)cc(-c2nn(-c3cccc(NC(=O)c4cccc(C(F)(F)F)c4)c3)cc2-c2ccncc2)c1 | 106

The compounds below were run on HOP-62 (assay: Growth inhibition of human HOP62 cells assessed as cell growth at 0.1 uM incubated for 48 hrs by sulforhodamine B assay relative to control). Settings: HOP-62, 48 h, read-out: Activity.
Format: functional

Row | SMILES | growth at 0.1 µM [%]
4 | COc1cc(Cl)cc(-c2nn(-c3cccc(NC(=O)c4cccc(C(F)(F)F)c4)c3)cc2-c2ccncc2)c1 | 101

What follows are compounds tested on HOP-62 (assay: Growth inhibition of human HOP62 cells incubated for 48 hrs by sulforhodamine B assay). Settings: HOP-62, 48 h, read-out: GI50.
Format: functional, cell-based

Row | SMILES | GI50 [µM]
5 | COc1cc(Cl)cc(-c2nn(-c3cccc(NC(=O)c4cccc(C(F)(F)F)c4)c3)cc2-c2ccncc2)c1 | > 100

Same assay, conditions: HOP-62, 48 h, read-out: LC50 (the source's name)

Row | SMILES | CC50 [µM]
6 | COc1cc(Cl)cc(-c2nn(-c3cccc(NC(=O)c4cccc(C(F)(F)F)c4)c3)cc2-c2ccncc2)c1 | > 100

Same assay, conditions: HOP-62, 48 h, read-out: TGI

Row | SMILES | TGI [µM]
7 | COc1cc(Cl)cc(-c2nn(-c3cccc(NC(=O)c4cccc(C(F)(F)F)c4)c3)cc2-c2ccncc2)c1 | > 100

Same assay, conditions: HOP-62, 48 h, read-out: pGI50 (converted)

Row | SMILES | GI50 [µM]
8 | COc1cc(Cl)cc(-c2nn(-c3cccc(NC(=O)c4cccc(C(F)(F)F)c4)c3)cc2-c2ccncc2)c1 | > 100

Same assay, conditions: HOP-62, 48 h, read-out: pLC50 (the source's name) (converted)

Row | SMILES | CC50 [µM]
9 | COc1cc(Cl)cc(-c2nn(-c3cccc(NC(=O)c4cccc(C(F)(F)F)c4)c3)cc2-c2ccncc2)c1 | > 100

Same assay, conditions: HOP-62, 48 h, read-out: pTGI (converted)

Row | SMILES | TGI [µM]
10 | COc1cc(Cl)cc(-c2nn(-c3cccc(NC(=O)c4cccc(C(F)(F)F)c4)c3)cc2-c2ccncc2)c1 | > 100

Each compound was assayed on T47D (assay: Growth inhibition of human T47D cells incubated for 48 hrs by sulforhodamine B assay). Settings: read-out: GI50.
Format: functional, cell-based

Row | SMILES | GI50 [µM]
11 | COc1cc(Cl)cc(-c2nn(-c3cccc(NC(=O)c4cccc(C(F)(F)F)c4)c3)cc2-c2ccncc2)c1 | 4.59

Same assay, conditions: read-out: LC50 (the source's name)

Row | SMILES | CC50 [µM]
12 | COc1cc(Cl)cc(-c2nn(-c3cccc(NC(=O)c4cccc(C(F)(F)F)c4)c3)cc2-c2ccncc2)c1 | > 100

Same assay, conditions: read-out: TGI

Row | SMILES | TGI [µM]
13 | COc1cc(Cl)cc(-c2nn(-c3cccc(NC(=O)c4cccc(C(F)(F)F)c4)c3)cc2-c2ccncc2)c1 | > 100

Same assay, conditions: read-out: pGI50 (converted)

Row | SMILES | GI50 [µM]
14 | COc1cc(Cl)cc(-c2nn(-c3cccc(NC(=O)c4cccc(C(F)(F)F)c4)c3)cc2-c2ccncc2)c1 | 4.68

Same assay, conditions: read-out: pLC50 (the source's name) (converted)

Row | SMILES | CC50 [µM]
15 | COc1cc(Cl)cc(-c2nn(-c3cccc(NC(=O)c4cccc(C(F)(F)F)c4)c3)cc2-c2ccncc2)c1 | > 100

Same assay, conditions: read-out: pTGI (converted)

Row | SMILES | TGI [µM]
16 | COc1cc(Cl)cc(-c2nn(-c3cccc(NC(=O)c4cccc(C(F)(F)F)c4)c3)cc2-c2ccncc2)c1 | > 100

These compounds were tested on ACHN (assay: Growth inhibition of human ACHN cells assessed as cell growth at 1 uM incubated for 48 hrs by sulforhodamine B assay relative to control). Settings: read-out: Activity.
Format: functional

Row | SMILES | growth at 1 µM [%]
17 | COc1cc(Cl)cc(-c2nn(-c3cccc(NC(=O)c4cccc(C(F)(F)F)c4)c3)cc2-c2ccncc2)c1 | 54

Each compound was assayed on TK-10 (assay: Growth inhibition of human TK10 cells assessed as cell growth at 10 uM incubated for 48 hrs by sulforhodamine B assay relative to control). Settings: TK-10, 48 h, read-out: Activity.
Format: functional

Row | SMILES | growth at 10 µM [%]
18 | COc1cc(Cl)cc(-c2nn(-c3cccc(NC(=O)c4cccc(C(F)(F)F)c4)c3)cc2-c2ccncc2)c1 | 72.7

These compounds were tested on SF-539 (assay: Growth inhibition of human SF539 cells assessed as cell growth at 0.01 uM incubated for 48 hrs by sulforhodamine B assay relative to control). Settings: SF-539, 48 h, read-out: Activity.
Format: functional

Row | SMILES | growth at 0.01 µM [%]
19 | COc1cc(Cl)cc(-c2nn(-c3cccc(NC(=O)c4cccc(C(F)(F)F)c4)c3)cc2-c2ccncc2)c1 | 93

These compounds were tested on SNB-19 (assay: Growth inhibition of human SNB19 cells assessed as cell growth at 0.1 uM incubated for 48 hrs by sulforhodamine B assay relative to control). Settings: SNB-19, 48 h, read-out: Activity.
Format: functional

Row | SMILES | growth at 0.1 µM [%]
20 | COc1cc(Cl)cc(-c2nn(-c3cccc(NC(=O)c4cccc(C(F)(F)F)c4)c3)cc2-c2ccncc2)c1 | 97

These compounds were tested on MDA-MB-468 (assay: Growth inhibition of human MDA-MB-468 cells assessed as cell growth at 1 uM incubated for 48 hrs by sulforhodamine B assay relative to control). Settings: MDA-MB-468, 48 h, read-out: Activity.
Format: functional

Row | SMILES | growth at 1 µM [%]
21 | COc1cc(Cl)cc(-c2nn(-c3cccc(NC(=O)c4cccc(C(F)(F)F)c4)c3)cc2-c2ccncc2)c1 | 50

Each compound was assayed on HCT-116 (assay: Growth inhibition of human HCT116 cells incubated for 48 hrs by sulforhodamine B assay). Settings: HCT-116, 48 h.
Format: functional, cell-based

Row | SMILES | pIC50
22 | COc1cc(Cl)cc(-c2nn(-c3cccc(NC(=O)c4cccc(C(F)(F)F)c4)c3)cc2-c2ccncc2)c1 | 5.50

Same assay, conditions: HCT-116, 48 h, read-out: GI50

Row | SMILES | GI50 [µM]
23 | COc1cc(Cl)cc(-c2nn(-c3cccc(NC(=O)c4cccc(C(F)(F)F)c4)c3)cc2-c2ccncc2)c1 | 3.17

Same assay, conditions: HCT-116, 48 h, read-out: LC50 (the source's name)

Row | SMILES | CC50 [µM]
24 | COc1cc(Cl)cc(-c2nn(-c3cccc(NC(=O)c4cccc(C(F)(F)F)c4)c3)cc2-c2ccncc2)c1 | > 100

Same assay, conditions: HCT-116, 48 h, read-out: TGI

Row | SMILES | TGI [µM]
25 | COc1cc(Cl)cc(-c2nn(-c3cccc(NC(=O)c4cccc(C(F)(F)F)c4)c3)cc2-c2ccncc2)c1 | > 100

Same assay, conditions: HCT-116, 48 h, read-out: pGI50 (converted)

Row | SMILES | GI50 [µM]
26 | COc1cc(Cl)cc(-c2nn(-c3cccc(NC(=O)c4cccc(C(F)(F)F)c4)c3)cc2-c2ccncc2)c1 | 3.16

Same assay, conditions: HCT-116, 48 h, read-out: pLC50 (the source's name) (converted)

Row | SMILES | CC50 [µM]
27 | COc1cc(Cl)cc(-c2nn(-c3cccc(NC(=O)c4cccc(C(F)(F)F)c4)c3)cc2-c2ccncc2)c1 | > 100

Same assay, conditions: HCT-116, 48 h, read-out: pTGI (converted)

Row | SMILES | TGI [µM]
28 | COc1cc(Cl)cc(-c2nn(-c3cccc(NC(=O)c4cccc(C(F)(F)F)c4)c3)cc2-c2ccncc2)c1 | > 100
